Assay results reported in patent publication US20120283193A1, “MANIPULATION OF BRAIN IN A CIRCUIT-SPECIFIC MANNER” (priority 2009, published 2012).
Read-outs that look alike come from different tables or passages of the source.

Assays:
[1] = system: Xenopus larvae; assay: Skin pigmentation adaptation to illumination/background in larvae; type: in vivo; details: for light-dependent changes in pigmentation (reduction in pigmented area) driven by newly induced TH/NPY annular neurons: MPTP-light and control larvae, sulpiride 10 nM during 30-min exposure to white background (FIG. 6c)
Protocol: Illumination experiments. The optimal condition for altering skin pigmentation and numbers of TH neurons were determined by raising larvae under two illumination conditions. In the first, larvae were placed on black, grey or white backgrounds (corresponding to N2.25, N7.25 or N9.5 on the Munsell neutral value scale of a monochromatic colour wheel) with constant illumination (331 lux (lx)). In the second, larvae on a white, grey or black background were exposed to constant illumination (6,560 lx, measured with a light meter (Sper Scientific)-equivalent to shady illumination on a sunny day), or to constant dark or to 12 h light/12 h dark. […] For some tests of the functional significance of newly TH neurons, animals were raised under different light/background conditions and a conditioning step of 30 min light/white background exposure was imposed to achieve similar levels of skin pigmentation before comparing light or dark adaptation between these groups.
(§1) Neuropharmacology. […] For selective ablation of VSCDA neurons, MPTP was bath-applied in the dark to larvae for 8 h at stage 41. 100 mM deprenyl (Sigma) was bath-applied to inhibit monoamine oxidase.

[2] = system: VSC neurons; type: in vivo, Xenopus
Protocol: as §1
Immunocytochemistry. The number of neurons in the VSC was quantified by counting the cells within the core and the surrounding annular region in sections of the diencephalon.
A pharmacological approach to test the involvement of electrical activity and calcium signaling was then performed. […] agarose beads loaded with calcein acetoxymethylester (calcein-AM) tracer were implanted in the roof of the hypothalamus above the VSC to evaluate the time course of drug delivery.

[3] = system: OB interneurons; assay: Neurotransmitter expression in olfactory bulb interneurons after kin/non-kin odorant exposure; type: in vivo, Xenopus laevis

Oc1cc2c(cc1O)C(c1ccccc1)CNCC2 (centres unmarked) [SKF-38393]
effect on pigmentation behaviour ([1]; D1 receptor agonist and antagonist, opposite effect to the D2 ligands): darkening

NC1=N[C@H](O)[C@H]2[C@H]3O[C@]4(O)O[C@@H]([C@@H](O)[C@@]2(N1)[C@@H]4O)[C@]3(O)CO [TTX, tetrodotoxin]
number of TH neurons or NPY/TH annular neurons in the VSC ([2]; in vivo): no increase
changes in NT phenotype (dopamine/GABA coexpression) after kin or nonkin exposure ([3]; in vivo): prevents

CCN1CCCC1CNC(=O)c1cc(S(N)(=O)=O)ccc1OC (centres unmarked) [sulpiride]
light-dependent changes in pigmentation (reduction in pigmented area) driven by newly induced TH/NPY annular neurons [1]: blocked
light-dependent changes in pigmentation (reduction in pigmented area) driven by newly induced TH/NPY annular neurons ([1]; listed as Sulpiride): blocks
changes in skin pigmentation in response to altered illumination ([1]; stage-42 larvae raised in the dark, 10 nM sulpiride for 30 min (FIG. 1c)): blocked
number of TH VSC neurons ([2]; sulpiride-treated larvae): not affected

CC(=O)OCOC(=O)CN(CC(=O)OCOC(C)=O)c1ccccc1OCCOc1ccccc1N(CC(=O)OCOC(C)=O)CC(=O)OCOC(C)=O [BAPTA-AM, 1,2-bis-(o-aminophenoxy)-ethane-N,N,N9,N9-tetraacetic acid, tetraacetoxymethyl ester]
number of TH neurons or NPY/TH annular neurons in the VSC ([2]; drug-loaded agarose beads implanted above the VSC, 2 h white light following 24 h in the dark (FIG. 4b, c)): no increase
NPY/TH colocalization in VSC sections of bead-implanted larvae ([2]; larvae exposed to 2 h light, versus white-adapted control and calcein bead (FIG. 4B)): absent
changes in NT phenotype (dopamine/GABA coexpression) after kin or nonkin exposure ([3]; local delivery, stage 45 larvae, 48 hr odorant exposure): prevents

CN1CC=C(c2ccccc2)CC1 [MPTP, 1-methyl-4-phenyl-1,2,3,6-tetrahydropyridine]
changes in pigmentation after 30 min exposure to light / white background ([1]; dark-raised, MPTP-treated larvae (MPTP-dark group, FIG. 6c)): abolished
